Measurements reported in US20110117227A1, “COSMETIC COMPOSITION FOR ANTI-AGING OF THE SKIN COMPRISING PHASEOLUS RADIATUS SEED EXTRACTS BY FERMENTATION AND ENZYME TREATMENT” (COREANA COSMETICS, CO., LTD., priority 2008, published 2011).

How the values were obtained:
Assay type in all cases: cell-based
[1] = test system: Human skin cells, fibroblasts; test: Alleviation of cell irritation caused by lactic acid (MTT cell survival); settings: lactic acid 0.2% only (comparative control), 12 hours
Method: Human skin cells, fibroblasts (KCTC, Korean Collection for Type Culture, Korea), were cultured in T-75 flask (Falcon, USA) until the cell confluency reached 80%. The cells were transferred to a 96-well plate (Falcon, USA) at the density of 3×10^4 cells/well, followed by further culture for 24 hours. After the culture, the cells were observed under microscope if they were completely adhered and well-grown. As a stimulus for skin, lactic acid (0.2%) was used. Particularly, 200 μl of each DMEM supplemented with 0.2% lactic acid and DMEM not-containing lactic acid was added to each well, to which the Phaseolus radiatus extract, the Phaseolus radiatus liquor of yeast-fermentation, the Phaseolus radiatus liquor of lactic acid bacterium-fermentation, the Phaseolus radiatus extract of enzyme treatment-yeast fermentation, the Phaseolus radiatus extract of enzyme treatment-lactic acid bacterium fermentation (Comparative Manufacturing Examples 1-5), and the Phaseolus radiatus extract of fermentation-enzyme treatment (Manufacturing Examples 1 and 2) were added thereto at the concentration of 1.0% (v/v). […] Particularly, MTT (Sigma, USA) solution (3 mg/ml) was added thereto and then Absorbance at 570 nm was measured using ELISA reader (Molecular Devices, USA).

[2] = test system: Human normal fibroblasts; test: Collagen biosynthesis (procollagen type I C-peptide level) in human normal fibroblasts; settings: positive control 250 uM, PICP
Method: Human normal fibroblasts were inoculated in a 48-well microplate ([…]) containing DMEM (Dulbecco's Modified Eagle Medium), followed by culture at 37° C. for 24 hours. […] After the culture, supernatant of each well was collected and procollagen type I C-peptide (PICP) level therein was measured using the kit (Takara, Japan) to calculate the amount of collagen newly synthesized. PICP level was calculated as ng/ml. […] The increasing rate of collagen biosynthesis was calculated according to the following Math Figure 1 and the results are shown in Table 2.

[3] = test system: Human normal fibroblasts; test: Fibroblast proliferation (MTT); settings: positive control 10 ng/ml
Method: Human normal fibroblasts were inoculated in a 96-well microplate (1×10^4 cells/well) containing DMEM, followed by culture at 37° C. for 24 hours. The Phaseolus radiatus extract prepared in Comparative Manufacturing Example 1, the Phaseolus radiatus liquor of yeast-fermentation prepared in Comparative Manufacturing Example 2, the Phaseolus radiatus liquor of lactic acid bacterium-fermentation prepared in Comparative Manufacturing Example 3, the Phaseolus radiatus extract of enzyme treatment-yeast fermentation prepared in Comparative Manufacturing Example 4, the Phaseolus radiatus extract of enzyme treatment-lactic acid bacterium fermentation prepared in Comparative Manufacturing Example 5, the Phaseolus radiatus extract of yeast fermentation-enzyme treatment prepared in Manufacturing Example 1 and the Phaseolus radiatus extract of lactic acid bacterium fermentation-enzyme treatment prepared in Manufacturing Example 2 were treated to the experimental group in which the final concentration of the respective extracts or liquors was 1% and medium was replaced with serum-free medium, followed by further culture for 24 hours. […] Particularly, MTT (Sigma, USA) solution (3 mg/ml) was added thereto and then Absorbance at 570 nm was measured using ELISA reader (Molecular Devices, USA). […]

## CC(O)C(=O)O (stereo not drawn) [lactic acid]
[1]
  Proliferation rate of fibroblast (%): 0.0%

## O=C1O[C@H]([C@@H](O)CO)C(O)=C1O [Ascorbic acid, ascorbic acid]
[2]
  Increasing rate of collagen biosynthesis (%): 72.8%

## TGF-β
[3]
  Proliferation rate of fibroblast (%): 186.6%
